For two molecules, IC50 and inhibition results are on record in ChEMBL document CHEMBL5512630, “The mechanism of UNC-51-like kinase 1 and the applications of small molecule modulators in cancer treatment” (Eur J Med Chem, 2024).

Assay [1] deals with Non-small cell lung cancer cell line. Kind of assay: Antiproliferative activity against Non-small cell lung cancer cells (unknown origin). The assay is classed as functional, cell-based.
In assay [2] the target is T1, Serine/threonine-protein kinase ULK1 (Homo sapiens) (UniProt O75385).
T1 sequence (whole entry): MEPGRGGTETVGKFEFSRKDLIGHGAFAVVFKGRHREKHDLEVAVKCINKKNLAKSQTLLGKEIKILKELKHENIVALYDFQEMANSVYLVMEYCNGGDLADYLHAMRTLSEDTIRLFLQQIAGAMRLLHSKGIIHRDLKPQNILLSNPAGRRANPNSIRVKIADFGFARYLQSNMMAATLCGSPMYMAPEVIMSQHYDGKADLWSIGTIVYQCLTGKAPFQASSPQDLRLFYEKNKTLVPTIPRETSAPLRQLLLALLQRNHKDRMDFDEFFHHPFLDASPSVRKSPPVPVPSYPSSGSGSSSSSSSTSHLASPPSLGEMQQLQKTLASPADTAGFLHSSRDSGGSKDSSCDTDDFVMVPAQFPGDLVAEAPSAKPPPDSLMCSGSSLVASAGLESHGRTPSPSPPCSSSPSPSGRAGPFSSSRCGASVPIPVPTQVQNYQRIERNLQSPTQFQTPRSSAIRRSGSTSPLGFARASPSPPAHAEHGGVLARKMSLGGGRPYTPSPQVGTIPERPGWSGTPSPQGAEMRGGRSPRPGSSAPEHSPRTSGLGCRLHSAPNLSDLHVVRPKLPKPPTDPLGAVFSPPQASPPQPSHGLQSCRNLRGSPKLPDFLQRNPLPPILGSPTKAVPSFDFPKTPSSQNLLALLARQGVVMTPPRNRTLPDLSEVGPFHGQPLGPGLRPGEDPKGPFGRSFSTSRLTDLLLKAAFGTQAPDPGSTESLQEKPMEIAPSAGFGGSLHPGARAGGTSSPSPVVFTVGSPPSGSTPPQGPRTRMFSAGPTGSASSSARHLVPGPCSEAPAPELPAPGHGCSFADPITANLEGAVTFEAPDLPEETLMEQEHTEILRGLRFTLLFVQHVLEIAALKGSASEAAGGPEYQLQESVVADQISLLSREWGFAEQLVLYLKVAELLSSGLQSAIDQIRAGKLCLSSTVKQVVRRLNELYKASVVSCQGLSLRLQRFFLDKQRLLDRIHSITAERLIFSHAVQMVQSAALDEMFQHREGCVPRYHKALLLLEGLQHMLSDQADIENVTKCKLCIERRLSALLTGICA
Kind of assay: Inhibition of ULK1 (unknown origin) relative to control. To be noted: concentration not given here.

The IC50 is the concentration that inhibits the measured activity by half. What is called inhibition is the percentage by which the read-out fell short of the control.

On to `C=CC(=O)Nc1cc(Nc2nccc(-c3cn(C)c4ccccc34)n2)c(OC)cc1N(C)CCN(C)C` [OSIMERTINIB], for which the 50% inhibitory concentration (IC50) in assay [1] was found to be 41 nM.
In assay [2], `O=c1c(O)c(-c2ccc(O)c(O)c2)oc2cc(O)ccc12` came in with an inhibition of 75%.
